Measurements from PubChem BioAssay AID248 (DTP/NCI, 2004).
Several values for one entry are separate records, joined by “and”; a condition that tells them apart may be missing. Equal values may be shown once. Toxic doses and inconclusive results are not listed. Cut-off read from the data, not from the text of the source: active = T/C of 150% or more; inactive = T/C below 125%.

Test system: L1210 leukemia ip in BDF1 mice, survival T/C
Test: NCI In Vivo Anticancer Drug Screen. Data for tumor model L1210 Leukemia (intraperitoneal) in B6D2F1 (BDF1) mice
Settings: endpoint: mean survival time, higher = longer survival
Procedure, shortened: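 Ratio derived from survival: compound-dosed mice over vehicle-dosed mice, all bearing a transplantable tumor.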

[1] = dose: 100.0 mg/kg/injection, schedule: Q04DX002 (ip), vehicle: saline
[2] = dose: 100.0 mg/kg/injection, schedule: Q04DX002 (ip), vehicle: Klucel (hydroxypropylcellulose) (HPC)
[3] = dose: 200.0 mg/kg/injection, schedule: Q04DX002 (ip), vehicle: Klucel (hydroxypropylcellulose) (HPC)
[4] = dose: 400.0 mg/kg/injection, schedule: Q04DX002 (ip), vehicle: Klucel (hydroxypropylcellulose) (HPC)
[5] = dose: 100.0 mg/kg/injection, schedule: Q01DX001 (ip), vehicle: saline with Tween-80
[6] = dose: 100.0 mg/kg/injection, schedule: Q01DX009 (ip), vehicle: saline with Tween-80
[7] = dose: 100.0 mg/kg/injection, schedule: Q04DX003 (ip), vehicle: saline with Tween-80
[8] = dose: 200.0 mg/kg/injection, schedule: Q01DX009 (ip), vehicle: saline with Tween-80
[9] = dose: 200.0 mg/kg/injection, schedule: Q04DX003 (ip), vehicle: saline with Tween-80
[10] = dose: 400.0 mg/kg/injection, schedule: Q01DX009 (ip), vehicle: saline with Tween-80
[11] = dose: 400.0 mg/kg/injection, schedule: Q04DX003 (ip), vehicle: saline with Tween-80
[12] = dose: 100.0 mg/kg/injection, schedule: Q04DX003 (ip), vehicle: Klucel (hydroxypropylcellulose) (HPC)

Measured: T/C

O=CC(O)C(O)C(O)C(O)CO (centres undefined) (tested in a mixture with another compound)
inactive: dose: 6.25 mg/kg/injection, schedule: Q04DX002 (ip), vehicle: saline 95 % of control | dose: 12.5 mg/kg/injection, schedule: Q04DX002 (ip), vehicle: saline 100 % of control | dose: 25.0 mg/kg/injection, schedule: Q04DX002 (ip), vehicle: saline 103 % of control and 91 % of control | dose: 75.0 mg/kg/injection, schedule: Q04DX002 (ip), vehicle: saline 95 % of control | [1] 103 % of control | dose: 150.0 mg/kg/injection, schedule: Q04DX002 (ip), vehicle: saline 95 % of control | dose: 200.0 mg/kg/injection, schedule: Q04DX002 (ip), vehicle: saline 99 % of control | dose: 300.0 mg/kg/injection, schedule: Q04DX002 (ip), vehicle: saline 106 % of control | dose: 400.0 mg/kg/injection, schedule: Q04DX002 (ip), vehicle: saline 102 % of control

COC(=O)[C@H]1[C@H]2C[C@@H]3c4[nH]c5ccccc5c4CCN3C[C@H]2C[C@@H](OC(=O)c2cc(OC)c(OC)c(OC)c2)[C@@H]1OC
inactive: dose: 0.23 mg/kg/injection, schedule: Q01DX009 (ip), vehicle: Klucel (hydroxypropylcellulose) (HPC) 93 % of control | dose: 0.23 mg/kg/injection, schedule: Q04DX003 (ip), vehicle: saline 95 % of control | dose: 0.46 mg/kg/injection, schedule: Q01DX009 (ip), vehicle: Klucel (hydroxypropylcellulose) (HPC) 90 % of control | dose: 0.46 mg/kg/injection, schedule: Q04DX003 (ip), vehicle: saline 104 % of control | dose: 0.93 mg/kg/injection, schedule: Q01DX009 (ip), vehicle: Klucel (hydroxypropylcellulose) (HPC) 101 % of control | dose: 0.93 mg/kg/injection, schedule: Q04DX003 (ip), vehicle: saline 112 % of control | dose: 1.87 mg/kg/injection, schedule: Q01DX009 (ip), vehicle: Klucel (hydroxypropylcellulose) (HPC) 88 % of control | dose: 1.87 mg/kg/injection, schedule: Q04DX003 (ip), vehicle: saline 98 % of control | dose: 3.75 mg/kg/injection, schedule: Q04DX003 (ip), vehicle: saline 101 % of control

NC(CC1CCCCC1)C(=O)O (centres undefined)
inactive: [2] 91 % of control | [3] 88 % of control | [4] 91 % of control

Cc1ccc(C)c(NC(=O)Nc2nccs2)c1
inactive: [5] 96 % of control | [6] 96 % of control and 97 % of control | dose: 100.0 mg/kg/injection, schedule: Q04DX002 (ip), vehicle: saline with Tween-80 96 % of control and 90 % of control | [7] 95 % of control | dose: 200.0 mg/kg/injection, schedule: Q01DX001 (ip), vehicle: saline with Tween-80 104 % of control | [8] 92 % of control and 93 % of control | dose: 200.0 mg/kg/injection, schedule: Q04DX002 (ip), vehicle: saline with Tween-80 93 % of control and 97 % of control | [9] 86 % of control | dose: 400.0 mg/kg/injection, schedule: Q01DX001 (ip), vehicle: saline with Tween-80 96 % of control | [10] 94 % of control and 96 % of control | dose: 400.0 mg/kg/injection, schedule: Q04DX002 (ip), vehicle: saline with Tween-80 100 % of control and 110 % of control | [11] 88 % of control

O=C(Nc1ccc(Cl)c(Cl)c1)C(Cl)Cl
inactive: [2] 109 % of control | [4] 103 % of control

CCN(CC)CCCC(C)Nc1cc(N)nc2nc(-c3cc(OC)c(OC)c(OC)c3)cnc12 (centres undefined) (tested in a mixture with another compound)
inactive: dose: 75.0 mg/kg/injection, schedule: Q01DX001 (ip), vehicle: saline 87 % of control

CN(CC(=O)C(C(N)=O)c1ccccc1)c1ccccc1 (centres undefined)
inactive: dose: 50.0 mg/kg/injection, schedule: Q01DX001 (ip), vehicle: carboxymethylcellulose (CMC) 96 % of control | dose: 100.0 mg/kg/injection, schedule: Q01DX001 (ip), vehicle: carboxymethylcellulose (CMC) 93 % of control | dose: 200.0 mg/kg/injection, schedule: Q01DX001 (ip), vehicle: carboxymethylcellulose (CMC) 93 % of control | dose: 400.0 mg/kg/injection, schedule: Q01DX001 (ip), vehicle: carboxymethylcellulose (CMC) 102 % of control

N#CSC/C=C/Cl
inactive: dose: 50.0 mg/kg/injection, schedule: Q01DX009 (ip), vehicle: Klucel (hydroxypropylcellulose) (HPC) 94 % of control | dose: 100.0 mg/kg/injection, schedule: Q01DX009 (ip), vehicle: Klucel (hydroxypropylcellulose) (HPC) 107 % of control | [12] 92 % of control | dose: 200.0 mg/kg/injection, schedule: Q04DX003 (ip), vehicle: Klucel (hydroxypropylcellulose) (HPC) 90 % of control

CCOC(=O)C(OCc1ccccc1)(C(=O)O)C(C)C (centres undefined)
inactive: dose: 25.0 mg/kg/injection, schedule: Q04DX003 (ip), vehicle: saline with Tween-80 93 % of control | dose: 50.0 mg/kg/injection, schedule: Q04DX003 (ip), vehicle: saline with Tween-80 97 % of control | [7] 98 % of control | [9] 103 % of control

Nc1nc(N)c(-c2ccc(Cl)cc2)c(COc2cccc([N+](=O)[O-])c2)n1
inactive: dose: 75.0 mg/kg/injection, schedule: Q01DX001 (ip), vehicle: carboxymethylcellulose (CMC) 89 % of control | dose: 150.0 mg/kg/injection, schedule: Q01DX001 (ip), vehicle: carboxymethylcellulose (CMC) 92 % of control | dose: 300.0 mg/kg/injection, schedule: Q01DX001 (ip), vehicle: carboxymethylcellulose (CMC) 93 % of control

O=C1Nc2ccccc2C1=NC1CCCC1
inactive: dose: 100.0 mg/kg/injection, schedule: Q01DX001 (ip), vehicle: saline 93 % of control | dose: 200.0 mg/kg/injection, schedule: Q01DX001 (ip), vehicle: saline 98 % of control | dose: 400.0 mg/kg/injection, schedule: Q01DX001 (ip), vehicle: saline 97 % of control

O=C(O)C1=CCC=CC1
inactive: [7] 98 % of control | [9] 109 % of control | [11] 106 % of control

O=C1C=C(c2ccccc2)C(=O)O1
inactive: [2] 95 % of control | [3] 92 % of control | [4] 90 % of control

CC1(C)N=C(N)N=C(N)N1c1cc(Cl)cc(CCNC(=O)Nc2ccc(S(=O)(=O)F)cc2)c1
inactive: dose: 25.0 mg/kg/injection, schedule: Q01DX001 (ip), vehicle: saline with Tween-80 98 % of control | dose: 50.0 mg/kg/injection, schedule: Q01DX001 (ip), vehicle: saline with Tween-80 98 % of control | [5] 106 % of control

C(CCSC1=NCCN1)CSC1=NCCN1
inactive: [1] 105 % of control

O=C(CCc1ccccc1)NC1CCCCC1
inactive: dose: 12.5 mg/kg/injection, schedule: Q01DX001 (ip), vehicle: Klucel (hydroxypropylcellulose) (HPC) 104 % of control | dose: 12.5 mg/kg/injection, schedule: Q04DX003 (ip), vehicle: saline 88 % of control | dose: 25.0 mg/kg/injection, schedule: Q01DX001 (ip), vehicle: Klucel (hydroxypropylcellulose) (HPC) 104 % of control | dose: 25.0 mg/kg/injection, schedule: Q04DX003 (ip), vehicle: saline 88 % of control | dose: 50.0 mg/kg/injection, schedule: Q01DX001 (ip), vehicle: Klucel (hydroxypropylcellulose) (HPC) 98 % of control | dose: 50.0 mg/kg/injection, schedule: Q04DX003 (ip), vehicle: saline 93 % of control

COc1cc2c(c(OC)c1OC)-c1ccc(OC)c(=O)cc1C(NC(=S)Nc1ccccc1)CC2 (centres undefined)
inactive: dose: 62.5 mg/kg/injection, schedule: Q01DX009 (ip), vehicle: other 104 % of control | dose: 125.0 mg/kg/injection, schedule: Q01DX009 (ip), vehicle: other 98 % of control | dose: 250.0 mg/kg/injection, schedule: Q01DX009 (ip), vehicle: other 103 % of control

O=C1C(Br)=Cc2cccc3cccc1c23
inactive: dose: 25.0 mg/kg/injection, schedule: Q01DX009 (ip), vehicle: saline sonified 100 % of control | dose: 50.0 mg/kg/injection, schedule: Q01DX009 (ip), vehicle: saline sonified 97 % of control | dose: 100.0 mg/kg/injection, schedule: Q01DX009 (ip), vehicle: saline sonified 100 % of control | [6] 101 % of control | [12] 90 % of control | [7] 97 % of control | [8] 104 % of control | [9] 95 % of control | [10] 97 % of control | dose: 400.0 mg/kg/injection, schedule: Q04DX003 (ip), vehicle: Klucel (hydroxypropylcellulose) (HPC) 87 % of control | [11] 103 % of control
